Results taken from patent US8778941B2, “TRPM8 antagonists and their use in treatments” (AMGEN Inc., priority 2011, dated 2014).

Molecular target: T1, human TRPM8 (Homo sapiens, UniProt Q7Z2W7)
T1 construct: expressed in transfected cells; host or cells: Chinese hamster ovary (CHO) cells, T-REx tetracycline-inducible expression system (Invitrogen), co-transfected with pcDNA3.1 jellyfish aequorin
Assay: Luminescence readout assay for measuring intracellular calcium (aequorin), hTRPM8 antagonism
Format: cell-based
Conditions: CHO cell line expressing human TRPM8 and aequorin; activation by icilin, L-menthol or cold buffer (table does not say which)

T1 sequence (Q7Z2W7 whole entry): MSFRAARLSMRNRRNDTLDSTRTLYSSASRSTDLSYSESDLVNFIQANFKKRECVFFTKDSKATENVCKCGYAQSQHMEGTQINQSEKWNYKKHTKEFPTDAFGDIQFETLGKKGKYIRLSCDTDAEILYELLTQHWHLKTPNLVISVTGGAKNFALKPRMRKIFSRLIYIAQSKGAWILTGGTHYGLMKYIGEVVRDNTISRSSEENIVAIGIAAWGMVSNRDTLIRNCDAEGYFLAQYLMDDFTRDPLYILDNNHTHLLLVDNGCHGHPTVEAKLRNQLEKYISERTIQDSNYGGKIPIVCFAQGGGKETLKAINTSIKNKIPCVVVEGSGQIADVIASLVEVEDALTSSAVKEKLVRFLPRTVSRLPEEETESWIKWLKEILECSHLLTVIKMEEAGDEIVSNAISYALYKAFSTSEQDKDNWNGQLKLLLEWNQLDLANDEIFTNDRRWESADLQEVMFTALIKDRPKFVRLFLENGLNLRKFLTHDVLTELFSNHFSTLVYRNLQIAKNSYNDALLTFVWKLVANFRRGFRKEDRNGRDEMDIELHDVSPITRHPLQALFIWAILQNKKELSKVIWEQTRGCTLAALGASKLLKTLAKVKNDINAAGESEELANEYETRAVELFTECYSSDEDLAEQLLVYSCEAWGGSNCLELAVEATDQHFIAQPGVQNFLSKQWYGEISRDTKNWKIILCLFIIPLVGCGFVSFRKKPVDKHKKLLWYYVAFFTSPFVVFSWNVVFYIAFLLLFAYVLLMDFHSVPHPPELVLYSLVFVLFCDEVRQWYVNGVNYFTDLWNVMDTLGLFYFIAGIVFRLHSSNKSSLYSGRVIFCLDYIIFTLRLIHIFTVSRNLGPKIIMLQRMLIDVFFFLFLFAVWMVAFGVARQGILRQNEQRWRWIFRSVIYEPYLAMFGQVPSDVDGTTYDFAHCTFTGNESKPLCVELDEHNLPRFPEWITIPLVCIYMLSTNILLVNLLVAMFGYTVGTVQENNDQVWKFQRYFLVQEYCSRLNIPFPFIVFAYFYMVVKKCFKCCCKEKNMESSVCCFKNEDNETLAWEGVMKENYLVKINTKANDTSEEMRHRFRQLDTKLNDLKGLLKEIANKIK

With `CC(C)(C)OC(=O)N[C@@H](c1ccc(C(F)(F)F)cc1)c1ncccc1Br` [Example 173, (S)-tert-Butyl((3-bromopyridin-2-yl)(4-(trifluoromethyl)-phenyl)methyl)carbamate] as the compound, how does the IC50 read?
The IC50 was 299 nM.

How did the IC50 turn out when `CCCc1cccnc1[C@@H](NC(=O)Nc1cccnc1)c1ccc(C(F)(F)F)cc1` [Example 168, (S)-1-((3-Propylpyridin-2-yl)(4-(trifluoromethyl)phenyl)-methyl)-3-(pyridin-3-yl)urea] was run?
The IC50 was 67 nM.

`O=C(Nc1cccnc1)N[C@@H](c1ccc(F)cc1)c1ncccc1C(F)(F)F` [Example 19, (S)-((4-fluorophenyl)-(3-(trifluoro-methyl)-pyridin-2-yl)-methyl)-3-(pyridin-3-yl)-urea] was tested. Which IC50 did it give?
Its IC50 is 382 nM.

How did the IC50 turn out when `O=C(NCc1ccc(F)cc1)N[C@@H](c1ccc(C(F)(F)F)cc1)c1ncccc1C(F)(F)F` [Example 144, (S)-1-(4-fluorobenzyl)-3-((4-(trifluoro-methyl)-phenyl)(3-(trifluoro-methyl)-pyridin-2-yl)-methyl)urea (2,2,2-trifluoro-acetate)] was run?
Its IC50 is 541 nM.

Which IC50 does the source give for `CC(C)(C)NC(=O)N[C@@H](c1ccc(C(F)(F)F)cc1)c1ncccc1C(F)(F)F` [Example 45, (S)-1-(tert-butyl)-3-((4-(trifluoro-methyl)-phenyl)(3-(trifluoro-methyl)-pyridin-2-yl)-methyl)urea] here?
Its IC50 is 53 nM.

How did the IC50 turn out when `O=C(Nc1cccnc1)N[C@@H](c1cnc2cccc(Cl)c2c1)c1ncccc1C(F)(F)F` [Example 10, (S)-1-((5-chloroquinolin-3-yl)(3-(trifluoro-methyl)-pyridin-2-yl)-methyl)-3-(pyridin-3-yl)-urea] was run?
The IC50 was 172 nM.

For `O=C(Nc1cccnc1)N[C@H](c1cccc(C(F)(F)F)c1)c1ccc(C(F)(F)F)c(F)c1` [Example 117, (R)-1-((3-fluoro-4-(trifluoro-methyl)-phenyl)(3-(trifluoro-methyl)-phenyl)-methyl)-3-(pyridin-3-yl)-urea (2,2,2-trifluoro-acetate)], which IC50 is on record?
The IC50 was 1750 nM.

For `C[C@@H](NC(=O)N[C@@H](c1ccc(C(F)(F)F)cc1)c1ncccc1C(F)(F)F)c1ccccc1` [Example 70, 1-((R)-1-phenylethyl)-3-((S)-(4-(trifluoro-methyl)-phenyl)(3-(trifluoro-methyl)-pyridin-2-yl)-methyl)urea (2,2,2-trifluoro-acetate)], which IC50 is on record?
The IC50 was 781 nM.

Which IC50 does the source give for `O=C(N[C@@H](c1ccc(C(F)(F)F)cc1)c1ccccn1)OCc1ccccc1` [Example 172, (S)-Benzyl(pyridin-2-yl(4-(trifluoromethyl)phenyl)methyl)-carbamate 2,2,2-trifluoroacetate] here?
Its IC50 is 360 nM.

`O=C(NCCCc1ccccc1)N[C@@H](c1ccc(C(F)(F)F)cc1)c1ncccc1C(F)(F)F` [Example 34, (S)-1-(3-phenylpropyl)-3-((4-(trifluoro-methyl)-phenyl)(3-(trifluoro-methyl)-pyridin-2-yl)-methyl)urea (2,2,2-trifluoro-acetate)] was tested. Which IC50 did it give?
The IC50 was 127 nM.

How did the IC50 turn out when `O=C(NCc1ccccc1F)N[C@@H](c1ccc(C(F)(F)F)cc1)c1ncccc1C(F)(F)F` [Example 87, (S)-1-(2-fluorobenzyl)-3-((4-(trifluoro-methyl)-phenyl)(3-(trifluoro-methyl)-pyridin-2-yl)-methyl)urea (2,2,2-trifluoro-acetate)] was run?
Its IC50 is 199 nM.

Which IC50 does the source give for `O=C(Nc1cccnc1)NC(c1ccc(C(F)(F)F)cc1)c1ccncc1Br` (centres unmarked) [Example 120, 1-((3-bromopyridin-4-yl)(4-(trifluoro-methyl)-phenyl)-methyl)-3-(pyridin-3-yl)-urea (2,2,2-trifluoro-acetate)] here?
Its IC50 is 2850 nM.

With `O=C(NCc1cccc(F)c1)N[C@@H](c1ccc(C(F)(F)F)cc1)c1ncccc1C(F)(F)F` [Example 72, (S)-1-(3-fluorobenzyl)-3-((4-(trifluoro-methyl)-phenyl)(3-(trifluoro-methyl)-pyridin-2-yl)-methyl)urea (2,2,2-trifluoro-acetate)] as the compound, how does the IC50 read?
The IC50 was 163 nM.

Which IC50 does the source give for `O=C(NCC1CCCCC1)N[C@@H](c1ccc(C(F)(F)F)cc1)c1ncccc1C(F)(F)F` [Example 127, (S)-1-(cyclohexyl-methyl)-3-((4-(trifluoro-methyl)-phenyl)(3-(trifluoro-methyl)-pyridin-2-yl)-methyl)urea (2,2,2-trifluoro-acetate)] here?
Its IC50 is 657 nM.

With `O=C(Nc1cccnc1)N[C@@H](c1ccc(C(F)(F)F)cc1)c1ccccn1` [Example 30, (S)-1-(pyridin-2-yl(4-(trifluoro-methyl)-phenyl)-methyl)-3-(pyridin-3-yl)-urea] as the compound, how does the IC50 read?
The IC50 was 97 nM.

With `COc1cc(NC(=O)N[C@@H](c2ccc(C(F)(F)F)cc2)c2ncccc2C(F)(F)F)cc(OC)c1OC` [Example 112, (S)-1-((4-(trifluoro-methyl)-phenyl)(3-(trifluoro-methyl)-pyridin-2-yl)-methyl)-3-(3,4,5-trimethoxy-phenyl)urea (2,2,2-trifluoro-acetate)] as the compound, how does the IC50 read?
Its IC50 is 287 nM.

How did the IC50 turn out when `Cc1noc(-c2ccccc2)c1NC(=O)N[C@@H](c1ccc(C(F)(F)F)cc1)c1ncccc1C(F)(F)F` [Example 69, (S)-1-(3-methyl-5-phenylisoxazol-4-yl)-3-((4-(trifluoro-methyl)-phenyl)(3-(trifluoro-methyl)-pyridin-2-yl)-methyl)urea (2,2,2-trifluoro-acetate)] was run?
The IC50 was 777 nM.

How did the IC50 turn out when `CCCCOC(=O)CNC(=O)N[C@@H](c1ccc(C(F)(F)F)cc1)c1ncccc1C(F)(F)F` [Example 104, (S)-butyl 2-(3-((4-(trifluoro-methyl)-phenyl)(3-(trifluoro-methyl)-pyridin-2-yl)-methyl)-ureido)acetate (2,2,2-trifluoro-acetate)] was run?
The IC50 was 604 nM.

Which IC50 does the source give for `C[C@H](NC(=O)N[C@@H](c1ccc(C(F)(F)F)cc1)c1ccccc1Br)C(F)(F)F` [Example 154, 1-((S)-(2-bromophenyl) (4-(trifluoro-methyl)-phenyl)-methyl)-3-((S)-1,1,1-trifluoro-propan-2-yl)-urea] here?
Its IC50 is 900 nM.

For `COc1cc([N+](=O)[O-])ccc1NC(=O)N[C@@H](c1ccc(C(F)(F)F)cc1)c1ncccc1C(F)(F)F` [Example 141, (S)-1-(2-methoxy-4-nitrophenyl)-3-((4-(trifluoro-methyl)-phenyl)(3-(trifluoro-methyl)-pyridin-2-yl)-methyl)urea (2,2,2-trifluoro-acetate)], which IC50 is on record?
Its IC50 is 360 nM.

For `O=C(Nc1cccnc1)N[C@@H](c1cnc2c(Cl)cccc2c1)c1ncccc1C(F)(F)F` [Example 12, (S)-1-((8-chloroquinolin-3-yl)(3-(trifluoro-methyl)-pyridin-2-yl)-methyl)-3-(pyridin-3-yl)-urea], which IC50 is on record?
The IC50 was 88 nM.

Which IC50 does the source give for `COc1ccc2cc([C@H](NC(=O)Nc3cccnc3)c3ncccc3C(F)(F)F)cnc2c1` [Example 18, (S)-1-((7-methoxy-quinolin-3-yl)-(3-(trifluoro-methyl)-pyridin-2-yl)-methyl)-3-(pyridin-3-yl)-urea] here?
Its IC50 is 308 nM.

How did the IC50 turn out when `O=C(Nc1ccc(-c2noc(=O)[nH]2)cc1)N[C@@H](c1ccc(C(F)(F)F)cc1)c1ncccc1C(F)(F)F` [Example 148, (S)-1-(4-(5-Oxo-4,5-dihydro-1,2,4-oxadiazol-3-yl)phenyl)-3-((4-(trifluoromethyl)phenyl)(3-(trifluoromethyl)pyridin-2-yl)methyl)urea] was run?
The IC50 was 1610 nM.

`O=C(Nc1c(Br)cc(F)cc1Br)N[C@@H](c1ccc(C(F)(F)F)cc1)c1ncccc1C(F)(F)F` [Example 63, (S)-1-(2,6-dibromo-4-fluorophenyl)-3-((4-(trifluoro-methyl)-phenyl)(3-(trifluoro-methyl)-pyridin-2-yl)-methyl)urea (2,2,2-trifluoro-acetate)] was tested. Which IC50 did it give?
The IC50 was 866 nM.

Which IC50 does the source give for `Cc1ccccc1NC(=O)N[C@@H](c1ccc(C(F)(F)F)cc1)c1ncccc1C(F)(F)F` [Example 145, (S)-1-(o-tolyl)-3-((4-(trifluoro-methyl)-phenyl)(3-(trifluoro-methyl)-pyridin-2-yl)-methyl)urea (2,2,2-trifluoro-acetate)] here?
Its IC50 is 474 nM.

With `COc1cccc(CCNC(=O)N[C@@H](c2ccc(C(F)(F)F)cc2)c2ncccc2C(F)(F)F)c1OC` [Example 82, (S)-1-(2,3-dimethoxy-phenethyl)-3-((4-(trifluoro-methyl)-phenyl)(3-(trifluoro-methyl)-pyridin-2-yl)-methyl)urea (2,2,2-trifluoro-acetate)] as the compound, how does the IC50 read?
Its IC50 is 559 nM.

With `CC(C)(C)NC(=S)N[C@@H](c1ccc(C(F)(F)F)cc1)c1ncccc1C(F)(F)F` [Example 123, (S)-1-tert-butyl-3-((4-(trifluoro-methyl)-phenyl)(3-(trifluoro-methyl)-pyridin-2-yl)-methyl)-thiourea] as the compound, how does the IC50 read?
Its IC50 is 190 nM.

How did the IC50 turn out when `Cc1ccc(F)c(NC(=O)N[C@@H](c2ccc(C(F)(F)F)cc2)c2ncccc2C(F)(F)F)c1` [Example 146, (S)-1-(2-fluoro-5-methylphenyl)-3-((4-(trifluoro-methyl)-phenyl)(3-(trifluoro-methyl)-pyridin-2-yl)-methyl)urea (2,2,2-trifluoro-acetate)] was run?
The IC50 was 3770 nM.

`Cc1c(NC(=O)N[C@@H](c2ccc(C(F)(F)F)cc2)c2ncccc2C(F)(F)F)cccc1[N+](=O)[O-]` [Example 142, (S)-1-(2-methyl-3-nitrophenyl)-3-((4-(trifluoro-methyl)-phenyl)(3-(trifluoro-methyl)-pyridin-2-yl)-methyl)urea (2,2,2-trifluoro-acetate)] was tested. Which IC50 did it give?
Its IC50 is 2180 nM.

How did the IC50 turn out when `COc1ccc(NC(=O)N[C@@H](c2ccc(C(F)(F)F)cc2)c2ncccc2C(F)(F)F)cc1OC` [Example 74, (S)-1-(3,4-dimethoxy-phenyl)-3-((4-(trifluoro-methyl)-phenyl)(3-(trifluoro-methyl)-pyridin-2-yl)-methyl)urea (2,2,2-trifluoro-acetate)] was run?
The IC50 was 112 nM.

How did the IC50 turn out when `O=C(Nc1cccnc1)N[C@@H](c1ccc(OC(F)(F)F)c(F)c1)c1ncccc1F` [Example 188, (S)-1-((3-fluoro-4-(trifluoro-methoxy)phenyl) (3-fluoropyridin-2-yl)methyl)-3-(pyridin-3-yl) urea] was run?
Its IC50 is 7 nM.

Which IC50 does the source give for `COC(=O)[C@H](Cc1ccccc1)NC(=O)N[C@@H](c1ccc(C(F)(F)F)cc1)c1ncccc1C(F)(F)F` [Example 136, (S)-methyl 3-phenyl-2-(3-((S)-(4-(trifluoro-methyl)-phenyl)(3-(trifluoro-methyl)-pyridin-2-yl)-methyl)-ureido)-propanoate (2,2,2-trifluoro-acetate)] here?
Its IC50 is 4050 nM.
